Laboratory results: publication PMC6858952 (Clinical cancer research : an official journal of the …, 2019)

Tests used:
[1] = system: human organoids from normal pancreata (hN); assay: Organoid cytotoxicity assay; assay type: cell-based; conditions: 72 h, read-out: EC50 hN
[2] = system: KPC mice (pancreatic ductal adenocarcinoma); assay: Survival study in tumor-bearing KPC mice; assay type: in vivo, mouse
[3] = system: hT3 organoid orthotopic xenografts in NSG mice; assay: Orthotopic xenografts of human tumor organoids, 7-day trial; assay type: in vivo, mouse
[4] = system: mouse organoids from normal pancreata (mN); assay: Organoid cytotoxicity assay; assay type: cell-based; conditions: 72 h, read-out: EC50 mN
[5] = Intratumoral gemcitabine pharmacokinetic analysis; assay type: in vivo, mouse; conditions: KPC tumors, with versus without MEKi and AKTi
[6] = system: mouse tumor organoids (mT); assay: Organoid cytotoxicity assay; assay type: cell-based; conditions: 72 h, read-out: EC50 mT

| SMILES | EC50 [1] | survival (in words) [2] | tumor growth (in words) [2] | cell death by CC3 IHC (in words) [3] | cell proliferation by Ki67 IHC (in words) [3] | EC50 [4] | intratumoral concentration of Gem and its metabolites [5] | EC50 [6] |
| --- | --- | --- | --- | --- | --- | --- | --- | --- |
| Cn1cnc2c(F)c(Nc3ccc(Br)cc3Cl)c(C(=O)NOCCO)cc21 [MEKi, selumetinib] | 12 µM | did not significantly impact | did not significantly impact | significantly increased | did not have any significant impact | 2 µM | – | – |
| NC1(c2ccc(-c3nc4ccn5c(=O)[nH]nc5c4cc3-c3ccccc3)cc2)CCC1 [AKTi, MK2206] | 70 µM | without extension in survival | reduced tumor growth | – | – | 0.14 µM | – | – |
| Nc1ccn([C@@H]2O[C@H](CO)[C@@H](O)C2(F)F)c(=O)n1 [Gem, gemcitabine] | – | did not significantly impact | did not significantly impact | – | – | – | no differences in intratumoral concentration | – |
| CCOc1cc2ncc(C#N)c(Nc3ccc(OCc4ccccn4)c(Cl)c3)c2cc1NC(=O)/C=C/CN(C)C [ERBBi, neratinib] | – | – | – | no effect on cell death | reduced cell proliferation | – | – | 1.2 µM |
